Paper PMC9570995, “Design, Synthesis, and Biological Evaluation of Novel Dihydropyridine and Pyridine Analogs as Potent Human Tissue Nonspecific Alkaline Phosphatase Inhibitors with Anticancer Activity: ROS and DNA Damage-Induced Apoptosis” (Molecules, 2022)
Where two headings read alike, the source gives them in different places.

How the values were obtained:
[1] = molecular target: T1, human tissue nonspecific alkaline phosphatase (h-TNAP) (Homo sapiens, UniProt P05186); assay: Alkaline phosphatase inhibition assay (p-NPP substrate); assay type: biochemical; conditions: for inhibition at 1000 µM: compounds tested at 1 mM
T1 sequence (P05186 18-524): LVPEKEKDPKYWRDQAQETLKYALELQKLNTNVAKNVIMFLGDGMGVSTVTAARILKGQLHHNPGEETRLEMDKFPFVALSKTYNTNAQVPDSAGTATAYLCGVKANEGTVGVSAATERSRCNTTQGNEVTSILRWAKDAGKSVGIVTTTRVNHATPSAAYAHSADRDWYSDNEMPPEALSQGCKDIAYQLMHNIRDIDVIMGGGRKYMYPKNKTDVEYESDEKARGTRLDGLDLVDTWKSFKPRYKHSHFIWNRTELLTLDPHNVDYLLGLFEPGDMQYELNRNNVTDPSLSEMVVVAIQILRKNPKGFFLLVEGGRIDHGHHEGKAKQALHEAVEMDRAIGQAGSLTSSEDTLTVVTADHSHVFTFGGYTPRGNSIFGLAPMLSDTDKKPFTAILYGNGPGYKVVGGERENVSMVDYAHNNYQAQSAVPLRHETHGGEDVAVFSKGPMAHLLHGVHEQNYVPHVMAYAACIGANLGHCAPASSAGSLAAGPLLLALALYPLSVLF
Experimental: The newly synthesized compounds were tested against human tissue nonspecific alkaline phosphatase (h-TNAP). The compounds were initially tested against the h-TNAP enzymes at 1 mM concentration. The assay buffer (pH 9.5) constituted of 50% glycerol, followed by tris-hydrochloride (50.0 mM), MgCl2 (5.0 mM), and ZnCl2 (0.1 mM) in the solution. The enzyme substrate p-nitrophenyl phosphate (p-NPP) and all the required test compounds were diluted to the required concentration by a dilution buffer method. In a 96-well plate, the assay was started by adding 70 µL of assay buffer followed by 10.0 µL of the test compound (from 1 mM), 10.0 µL of the enzyme (0.5 µL/mL) and then subsequently incubating at 37 °C for 10 min. The reaction was initiated with the addition of 10.0 µL of substrate (5.0 mM p-NPP) into each well and incubated for an additional 30 min.
Percent inhibition was calculated by the formula:% Inhibition = [100 − (abs of test comp/abs of control) × 100]

[2] = test system: Cervical Cancer (HeLa) Cells; assay: MTT cell viability assay, HeLa; assay type: cell-based; conditions: for IC50: unit given, read-out: Cervical Cancer (HeLa) Cells IC50 Values ± SEM
Source text: (§1) An MTT assay was used to determine the viability of the cells under examination in the desired medium. The mitochondrial dehydrogenase enzyme of the viable cells has a key role in the conversion of the yellow water-soluble substrate 3-(4,5-dimethylthiazol-2-y1)-2,5 diphenyl tetrazolium bromide (MTT) into a dark blue formazan product that is insoluble in water. The anticancer activity of the novel synthetic derivatives (4a–4k) was investigated through an MTT assay, with small modifications following the already published protocols against cancer cell lines (HeLa and MCF-7), using cisplatin as a reference drug. The cytotoxic effect of the tested compounds at 100 µM concentration was determined and represented as the percent growth inhibition compared with the untreated control cells. The first series comprised dihydropyridines analogous from 4a–4f with various substitution patterns on the phenyl ring. […] It is presumed that the 1-naphthyl containing compound 4c was locked in a configuration that is not favorable for an interaction with amino acid residues.
(§2) The anti-proliferative activity of the synthesized compounds was determined in MCF-7 and HeLa cells by an MTT cell viability assay, as described earlier. Briefly, we seeded 1 × 10^4 cells/well in a sterile 96-well culture microtiter plate and incubated them in a 5% CO2 incubator at 37 °C for 24 h. […] After 24 h, the cells were treated with 0.2 mg/mL of MTT reagent for 4 h. We added 10% acidified SDS (sodium dodecyl sulfate) solubilizing solution in propanol (1:1) to solubilize the formazan crystals. After 30 min at 37 °C, the plate was placed on a gyratory shaker to completely dissolve the formazan crystals. The plate was placed on a microplate reader to measure the optical density at 570 nm. The IC50 values were calculated from three independent experiments as previously reported.

[3] = test system: Breast Cancer (MCF-7) Cells; assay: MTT cell viability assay, MCF-7; assay type: cell-based; conditions: for inhibition at 100 µM / IC50: Homo sapiens; for inhibition at 100 µM: MCF7, 100 µM, 24 h; for IC50: MCF7, unit given, read-out: Breast Cancer (MCF-7) Cells IC50 Values ± SEM
Source text: as §1, §2

[4] = Table 2, unit given in Table 1, read-out: Alkaline Phosphatase (h-TNAP) IC50
[5] = h-TNAP, assay buffer pH 9.5, Table 1 and text, read-out: IC50 + SEM
[6] = Homo sapiens, HeLa, 100 µM, 24 h
[7] = Table 2, read-out: Alkaline Phosphatase (h-TNAP) percent inhibition
[8] = percent inhibition of h-TNAP, Table 1 and text, read-out: Inhibitory Potential

| SMILES | IC50 [1, 4] [µM] | IC50 [1, 5] [µM] | inhibition at 100 µM [2, 6] [%] | IC50 ([2]; Homo sapiens, HeLa) [µM] | inhibition at 100 µM [3] [%] | IC50 [3] [µM] | inhibition at 1000 µM [1, 7] [%] | inhibition at 1000 µM [1, 8] [%] | activity against HeLa in words [2] | activity against MCF-7 in words [3] | activity against h-TNAP in words [1] | Cervical Cancer (HeLa) Cells % Inhibition (at 100 µM) ([2]; 100 µM, 24 h) [%] | IC50 [2] [µM] |
| --- | --- | --- | --- | --- | --- | --- | --- | --- | --- | --- | --- | --- | --- |
| COc1ccc(C2C(C#N)=C(N)N(Cc3ccccc3)C(N)=C2C#N)c(OC)c1OC [Compound 4e, 2,6-Diamino-1-benzyl-4-(2,3,4-trimethoxyphenyl)-1,4-dihydropyridine-3,5-dicarbonitrile] | 8.8 ± 0.53 | 8.8 ± 0.53 | 60 | 69.47 ± 0.07 | 5.73 |  |  |  |  |  |  |  |  |
| COc1c(O)cccc1C1C(C#N)=C(N)N(Cc2ccccc2)C(N)=C1C#N [Compound 4f, 2,6-Diamino-1-benzyl-4-(3-hydroxy-2-methoxyphenyl)-1,4-dihydropyridine-3,5-dicarbonitrile] | 2.25 ± 0.16 | 2.25 ± 0.16 | 77.3 | 57 ± 7.1 | 61.7 | 77 ± 8.3 |  |  |  |  |  |  |  |
| N#CC1=C(N)N(Cc2ccccc2)C(N)=C(C#N)C1c1cccc2ccccc12 [Compound 4c, 2,6-Diamino-1-benzyl-4-(naphthalen-1-yl)-1,4-dihydropyridine-3,5-dicarbonitrile] |  |  | 21.3 |  | 23.1 |  | 26.2 | 26.2 | inactive | inactive |  |  |  |
| CSc1ccc(C2C(C#N)=C(N)N(Cc3ccccc3)C(N)=C2C#N)cc1 [Compound 4a, 2,6-Diamino-1-benzyl-4-(4-(methylthio)phenyl)-1,4-dihydropyridine-3,5-dicarbonitrile] |  |  | 7.71 |  | 37.9 |  | 21.1 | 20.9 | least potency | least potency | least activity |  |  |
| CSc1ccc(-c2c(C#N)c(N)nc(NCCc3ccc(S(N)(=O)=O)cc3)c2C#N)cc1 [Compound 4h, 4-(2-((6-Amino-3,5-dicyano-4-(4-(methylthio)phenyl)pyridin-2-yl)amino)ethyl)benzene sulfonamide] |  |  | 38.4 |  | 57.2 | 109.9 ± 1.07 | 37.6 | 37.6 |  |  | least inhibitory activity |  |  |
| CC(C)c1ccc(C2C(C#N)=C(N)N(Cc3ccccc3)C(N)=C2C#N)cc1 [Compound 4b, 2,6-Diamino-1-benzyl-4-(4-isopropylphenyl)-1,4-dihydropyridine-3,5-dicarbonitrile] |  |  | 11 |  | 41.8 |  | 28.3 | 28.3 | least potency | least potency | least activity |  |  |
| CC(C)c1ccc(-c2c(C#N)c(N)nc(NCCc3ccc(S(N)(=O)=O)cc3)c2C#N)cc1 [Compound 4i] |  |  | 39.3 |  | 34.6 |  | 31.7 | 31.7 |  |  | least inhibitory activity |  |  |
| COc1cccc2c1C(=O)c1c(O)c3c(c(O)c1C2=O)C[C@@](O)(C(=O)CO)C[C@@H]3O[C@H]1C[C@H](N)[C@H](O)[C@H](C)O1 [Doxorubicin, reference compound] |  |  |  |  | 98.9 | 2.81 ± 0.39 |  |  |  |  |  |  |  |
| CCOc1ccc(-c2c(C#N)c(N)nc(NCCCn3ccnc3)c2C#N)cc1 [Compound 4j, 2-((3-(1H-Imidazol-1-yl)propyl)amino)-6-amino-4-(4-ethoxyphenyl)pyridine-3,5-dicarbonitrile] | 1.22 ± 0.12 | 1.22 ± 0.12 | 77.8 | 57 ± 1.5 | 72.4 | 54 ± 1.7 |  |  |  |  |  |  |  |
| N.N.[Cl][Pt][Cl] [Cisplatin, reference compound] |  |  |  |  |  |  |  |  |  |  |  | 98.32 | 11.3 ± 0.78 |
| CCOc1ccc(-c2c(C#N)c(N)nc(NCCc3ccc(S(N)(=O)=O)cc3)c2C#N)cc1 [Compound 4g, 4-(2-((6-Amino-3,5-dicyano-4-(4-ethoxyphenyl)pyridine-2yl)amino)ethyl)benzene sulfonamide] | 0.49 ± 0.025 | 0.49 ± 0.025 | 67.1 | 63 ± 4.1 | 53.3 | 98 ± 5.7 |  |  |  |  |  |  |  |
| CC(C)c1ccc(-c2c(C#N)c(N)nc(NCCCn3ccnc3)c2C#N)cc1 [Compound 4k, 2-((3-(1H-Imidazol-1-yl)propyl)amino)-6-amino-4-(4-(isopropyle)phenyl)pyridine-3,5-dicarbonitrile] |  |  | 63.8 | 66 ± 1.97 | 40.1 |  | 36.5 | 36.5 |  |  | comparatively inactive |  |  |
